Measurements published in paper PMC6753678, “Fueling Open Innovation for Malaria Transmission-Blocking Drugs: Hundreds of Molecules Targeting Early Parasite Mosquito Stages” (Frontiers in Microbiology, 2019).
Where two headings read alike, the source gives them in different places.

What was measured:
[1] = tested on: 3D7-strain P. falciparum asexual parasites; assay: P. falciparum asexual growth inhibition assay (Pf GIA); assay type: cell-based, Plasmodium falciparum; conditions: dose response confirmation; read-out: Pf asexual growth inhibition assays IC50
Method in brief: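 Read-out was lactate dehydrogenase activity measured by absorbance at 650 nm after freezing and thawing, against 50 μM chloroquine and DMSO controls. Before that, asexual 3D7 cultures (0.25% parasitemia, 2% hematocrit) had 72 h dose-response compound exposure at 37°C in 5% CO2/5% O2/90% N2; three independent replicates averaged.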

HepG2 cells [2] = assay: HepG2 cytotoxicity assay; conditions: for Unified cytotox: HepG2 values of the three screens unified; for IC50: read-out: HepG2 cytotoxicity assay IC50, dose response confirmation
Method in brief: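 Cells at 2,500 per well in MEM with 10% fetal bovine serum and 1% NEAA were exposed to test compounds for 48 h at 37°C, 5% CO2. Viability was read by fluorescence, with percent inhibition calculated against 50 μM doxorubicin (positive) and DMSO (negative) controls.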

[3] = tested on: P. berghei ookinete development; conditions: for Is compound selective in assay? Pb ODA active?: 1: YES, 0: NO; for % inhibition, Replicate A / % inhibition, Replicate B: primary screen at 1 μM
[4] = tested on: P. falciparum female gametocytes; set-up: method as in Miguel-Blanco et al 2017; conditions: ref Miguel-Blanco et al 2017, read-out: Pf FGAA IC50, cited from earlier work
HepG2 cells [5] = conditions: ref Miguel-Blanco et al 2017, cited from earlier work
[6] = tested on: P. falciparum female gametocytes; assay: P. falciparum female gametogenesis assay (Pf FGAA); conditions: 1: YES; 0: NO
[7] = read-out: Pb Ookinete development assay IC50, dose response confirmation
[8] = read-out: Pb ODA IC50, this manuscript
[9] = HepG2 value reported with Pf FGAA screen

Compound	IC50 [1] [nM]	HepG2 cytoxicity (Pb ODA, this manuscript) (HepG2 cells [2]) [µM]	Unified cytotox (HepG2 cells [2]) [µM]	IC50 (HepG2 cells [2]) [nM]	Is compound selective in assay? Pb ODA active? [3]	% inhibition, Replicate A [3] [%]	% inhibition, Replicate B [3] [%]	IC50 [3, 7] [nM]	IC50 [4] [nM]	HepG2 cytoxicity (Pf FGAA screen) (HepG2 cells [5]; HepG2) [µM]	Is compound selective in assay? Pf FGAA active? [6]	IC50 [3, 8] [nM]	IC50 ([4]; TCAMS library screen) [nM]	HepG2 cytoxicity (Pf FGAA screen) (HepG2 cells [5]; [9]) [µM]
CC(C)(CNC(=O)[C@H]1CCCCN1)c1nc(-c2ccc(Cl)c(O)c2)c(-c2ccncc2)[nH]1.Cl [TCMDC-141070]	818	61.66	45.31	61700	1 (1: YES)	24.32	51.52	2570	530	28.96	1 (1: YES)	–	–	–
O=C(Nc1ccc(Cl)cc1)c1cc(Cl)cc2nc(C(F)(F)F)[nH]c12 [TCMDC-141586]	1100	2.04	2.43	2040	0 (0: NO)	65.74	42.68	4360	1700	2.82	0 (0: NO)	4370	–	–
Cl.NCC1(c2nc(-c3ccc(Cl)c(O)c3)c(-c3ccncc3)[nH]2)CCCCC1 [TCMDC-141154]	1480	46.77	29.34	46800	1 (1: YES)	57.75	53.53	1000	210	11.90	1 (1: YES)	1010	–	–
Cc1cccc(Nc2nc(N[C@@H]3CCCNC3)nc3cc[nH]c(=O)c23)c1.O=C(O)C(F)(F)F [TCMDC-134835]	255	4.57	3.91	4570	0 (0: NO)	88.28	77.31	889	1850	3.25	0 (0: NO)	890	–	–
N#Cc1ccc(Cn2ccc3c4c(N)nc(N)nc4ccc32)cc1 [TCMDC-137820]	22	0.0017	0.0017	1.7	0 (0: NO)	57.43	49.47	1540	1060	<0.0017	0 (0: NO)	1540	–	–
Cc1ccc(S(=O)(=O)N(CCCNCc2cccc(O)c2)c2ccccc2)cc1 [TCMDC-138022]	124	34.67	39.67	34700	1 (1: YES)	53.17	87.34	1480	1140	44.67	1 (1: YES)	1480	–	–
CC(C)(CN)c1nc(-c2ccc(Br)c(O)c2)c(-c2ccncc2)[nH]1.Cl [TCMDC-140680]	1550	47.32	46.57	47300	1 (1: YES)	97.33	90.28	1930	840	45.82	1 (1: YES)	1930	–	–
CC(C)(C)CNCC(C)(C)c1nc(-c2ccc(Cl)c(O)c2)c(-c2ccncc2)[nH]1.Cl [TCMDC-140549]	817	12.02	11.83	12000	0 (0: NO)	58.06	49.80	1350	1010	11.63	1 (1: YES)	1350	–	–
Oc1c(C(Nc2nc3ccccc3s2)c2ccccc2)ccc2cccnc12 (stereo not shown) [TCMDC-125565]	2390	2.34	2.34	2340	0 (0: NO)	27.85	50.32	4000	3030	–	0 (0: NO)	4000	–	–
Nc1nc(N)c2c(ccc3[nH]c(-c4ccccc4Cl)nc32)n1 [TCMDC-137840]	–	–	–	–	–	–	–	–	–	–	0 (0: NO)	–	4420	2.32
C=CCc1cccc(CN2CCC(c3cc(=O)[nH]c(-c4ccccn4)n3)CC2)c1O [TCMDC-124851]	–	–	–	–	–	–	–	–	–	–	0 (0: NO)	–	1740	11.49
O=C(Nc1cccc(-c2cccc(-c3nc4cc(C(F)(F)F)ccc4[nH]3)c2)c1)Nc1ccc(F)c(F)c1F [TCMDC-133229]	–	–	–	–	–	–	–	–	–	–	0 (0: NO)	–	1400	3.43
COc1cc2nc(Nc3ccc4c(ccn4Cc4ccccc4)c3)nc(Nc3ccc4c(ccn4Cc4ccccc4)c3)c2cc1OC [TCMDC-138237]	–	–	–	–	–	–	–	–	–	–	0 (0: NO)	–	1580	14.13
O=C(O)C(F)(F)F.c1cc(CN2CCC(CCN3CCCCC3)CC2)cc(-c2csc(-c3nc4ccccc4[nH]3)c2)c1 [TCMDC-133919]	–	–	–	–	–	–	–	–	–	–	0 (0: NO)	–	2110	6.04
NCCCNc1nc(Nc2ccc(C(F)(F)F)cc2F)c2c(=O)[nH]ccc2n1.O=C(O)C(F)(F)F [TCMDC-135056]	–	–	–	–	–	–	–	–	–	–	0 (0: NO)	–	1600	9.30
CCc1cc2c(Sc3nnc(N)s3)ncnc2s1 [TCMDC-123993]	–	–	–	–	–	–	–	–	–	–	1 (1: YES)	–	730	32.30
CC(C)c1ccc(CN2CCC(CNC(=O)c3cc(-c4cccc(C(F)(F)F)c4)cs3)C2)cc1.O=C(O)C(F)(F)F (stereo not shown) [TCMDC-134435]	–	–	–	–	–	–	–	–	–	–	0 (0: NO)	–	1300	5.13
CN(C)CCNCc1ccc(-c2ccc3c(Nc4ccc(Cl)cc4F)ccnc3c2)o1 [TCMDC-138391]	–	–	–	–	–	–	–	–	–	–	0 (0: NO)	–	1710	0.89
CN1CCC(N2CCN(Cc3cccc(-c4ccc(-c5nc6cc(C(F)(F)F)ccc6[nH]5)cc4)c3)CC2)CC1.O=C(O)C(F)(F)F [TCMDC-133842]	–	–	–	–	–	–	–	–	–	–	0 (0: NO)	–	1090	2.44
CN(C)CCCNCc1cn(S(=O)(=O)c2ccccc2Cl)c2ccccc12.Cl [TCMDC-136302]	–	–	–	–	–	–	–	–	–	–	0 (0: NO)	–	1840	11.78
